Test: relative stability of linezolid crystal forms
Format: physicochemical
Conditions: temperature below about 85° (degrees Centigrade)

stability of the crystal form relative to other solid forms (e.g. Form I): most stable form below about 85°
Structure (SMILES): CC(=O)NC[C@H]1CN(c2ccc(N3CCOCC3)c(F)c2)C(=O)O1 [Crystal Form II, (S)-N-[[3-[3-fluoro-4-(4-morpholinyl)phenyl]-2-oxo-5-oxazolidinyl]methyl]acetamide]

From patent US6559305B1, “Linezolid—crystal form II” (Pharmacia & Upjohn Company, priority 2000, dated 2003)
